Tests used:
Assay in all cases: Post-emergence efficacy, glasshouse pot test
Type in all cases: in vivo
Settings in all cases: post-emergence application at 1000 g/ha; evaluated after 13 days; five point scale
[1] = test system: Echinochloa crus-galli (ECHCG)
Description: (§1) B1 Post-emergence Efficacy Seeds of a variety of test species are sown in standard soil in pots:—Solanum nigrum (SOLNI), Amaranthus retoflexus (AMARE), Setaria faberi (SETFA), Alopecurus myosuroides (ALOMY), Echinochloa crus-galli (ECHCG), Ipomoea hederacea (IPOHE). After 8 days cultivation (post-emergence) under controlled conditions in a glasshouse (at 24/16° C., day/night; 14 hours light; 65% humidity), the plants are sprayed with an aqueous spray solution derived from the formulation of the technical active ingredient in acetone/water (50:50) solution containing 0.5% Tween 20 (polyoxyethelyene sorbitan monolaurate, CAS RN 9005-64-5). Compounds are applied at 1000 g/ha. The test plants are then grown in a glasshouse under controlled conditions in a glasshouse (at 24/16° C., day/night; 14 hours light; 65% humidity) and watered twice daily. After 13 days, the test is evaluated for the percentage damage caused to the plant. The biological activities are shown below in Table 13, on a five point scale (5=80-100%; 4=60-79%; 3=40-59%; 2=20-39%; 1=0-19%).

[2] = test system: Alopecurus myosuroides (ALOMY)
Description: as §1

[3] = test system: Amaranthus retoflexus (AMARE)
Description: as §1

[4] = test system: Solanum nigrum (SOLNI)
Description: as §1

[5] = test system: Ipomoea hederacea (IPOHE)
Description: as §1

[6] = test system: Setaria faberi (SETFA)
Description: as §1

Compound | percentage damage caused to the plant, ECHCG [1] | percentage damage caused to the plant, ALOMY [2] | percentage damage caused to the plant, AMARE [3] | percentage damage caused to the plant, SOLNI [4] | percentage damage caused to the plant, IPOHE [5] | percentage damage caused to the plant, SETFA [6]
CC(C)C(=O)Oc1c(-c2c(Cl)ccc(Cl)c2OCc2ccc(Cl)cc2)c(=O)n(CC(F)F)c2ncccc12 [Compound 3.003] | 1 (1=0-19%) | 1 (1=0-19%) | 5 (5=80-100%) | 5 (5=80-100%) | 5 (5=80-100%) | 1 (1=0-19%)
CC(C)C(=O)Oc1c(-c2c(Cl)ccc(Cl)c2OCc2ccccc2)c(=O)n(CC(F)F)c2ncccc12 [Compound 3.001] | 2 (2=20-39%) | 2 (2=20-39%) | 5 (5=80-100%) | 5 (5=80-100%) | 5 (5=80-100%) | 1 (1=0-19%)
C#CCn1c(=O)c(-c2c(Cl)ccc(Cl)c2OCc2ccc(Cl)cc2)c(OC(=O)C(C)C)c2cccnc21 [Compound 1.003] | 4 (4=60-79%) | 1 (1=0-19%) | 5 (5=80-100%) | 5 (5=80-100%) | 5 (5=80-100%) | 3 (3=40-59%)
C#CCn1c(=O)c(-c2c(Cl)ccc(Cl)c2OCc2ccccc2)c(O)c2cccnc21 [Compound 2.001, 3-(2-Benzyloxy-3,6-dichloro-phenyl)-4-hydroxy-1-prop-2-ynyl-1,8-naphthyridin-2-one] | 5 (5=80-100%) | 5 (5=80-100%) | 5 (5=80-100%) | 5 (5=80-100%) | 5 (5=80-100%) | 5 (5=80-100%)
C#CCn1c(=O)c(-c2cccc(Cl)c2OCc2ccccc2)c(O)c2cccnc21 [Compound 10.001] | 1 (1=0-19%) | 1 (1=0-19%) | 4 (4=60-79%) | 5 (5=80-100%) | 5 (5=80-100%) | 1 (1=0-19%)

— patent US9604983B2, “Herbicidal 3-(2-benzyloxyphenyl)-2,4-dihydroxy-1,8-naphthyridine derivatives” (SYNGENTA LIMITED, priority 2013, dated 2017)
